From ChEMBL document CHEMBL1817598, “Design, synthesis and biological evaluation of a simplified fluorescently labeled discodermolide as a molecular probe to study the binding of discodermolide to tubulin” (Bioorg Med Chem, 2011)

Legend:
[1] = Binding affinity to microtubule by spectrofluorometry
[2] = tested on: A2780; test: Ratio of compound IC50 to Paclitaxel IC50 for human A2780 cells; assay type: functional
[3] = Effect on bovine brain tubulin assembly by spectrophotometry; parameters: species or system Bos taurus
[4] = tested on: A2780; test: Cytotoxicity against human A2780 cells after 2 days by Alamar blue assay; assay type: functional, cell-based; conditions: A2780, 48 h

Row | Structure (SMILES) | Kd [1] [µM] | Ratio IC50 [2] | EC50 [3] [µM] | IC50 [4] [µM]
1 | CCCC[C@H](C)[C@H](OC(N)=O)[C@@H](C)[C@H](O)[C@@H](C)C/C(C)=C\[C@H](C)[C@@H](O)[C@@H](C)/C=C\[C@@H](O)CCOC(=O)c1cccc(N(C)C)c1 | 24 | 386 | 5.2 | 5.4
2 | CC(=O)O[C@H]1C(=O)[C@@]2(C)[C@H]([C@H](OC(=O)c3ccccc3)[C@]3(O)C[C@H](OC(=O)[C@H](O)[C@@H](NC(=O)c4ccccc4)c4ccccc4)C(C)=C1C3(C)C)[C@]1(OC(C)=O)CO[C@@H]1C[C@@H]2O [PACLITAXEL] | 0.015 | – | 0.49 | –
